Laboratory results reported in patent US5583123A, “Certain tetrazole derivatives” (priority 1994, dated 1996).

Biological target: T1, Endothelin converting enzyme (ECE) (Sus scrofa, UniProt A0A8W4FBH0)
T1 construct: partially purified from porcine primary aortic endothelial cells; endogenous in cells; host or cells: porcine primary aortic endothelial cells (partially purified by DE52 anion exchange)
T1 sequence (A0A8W4FBH0 1-751): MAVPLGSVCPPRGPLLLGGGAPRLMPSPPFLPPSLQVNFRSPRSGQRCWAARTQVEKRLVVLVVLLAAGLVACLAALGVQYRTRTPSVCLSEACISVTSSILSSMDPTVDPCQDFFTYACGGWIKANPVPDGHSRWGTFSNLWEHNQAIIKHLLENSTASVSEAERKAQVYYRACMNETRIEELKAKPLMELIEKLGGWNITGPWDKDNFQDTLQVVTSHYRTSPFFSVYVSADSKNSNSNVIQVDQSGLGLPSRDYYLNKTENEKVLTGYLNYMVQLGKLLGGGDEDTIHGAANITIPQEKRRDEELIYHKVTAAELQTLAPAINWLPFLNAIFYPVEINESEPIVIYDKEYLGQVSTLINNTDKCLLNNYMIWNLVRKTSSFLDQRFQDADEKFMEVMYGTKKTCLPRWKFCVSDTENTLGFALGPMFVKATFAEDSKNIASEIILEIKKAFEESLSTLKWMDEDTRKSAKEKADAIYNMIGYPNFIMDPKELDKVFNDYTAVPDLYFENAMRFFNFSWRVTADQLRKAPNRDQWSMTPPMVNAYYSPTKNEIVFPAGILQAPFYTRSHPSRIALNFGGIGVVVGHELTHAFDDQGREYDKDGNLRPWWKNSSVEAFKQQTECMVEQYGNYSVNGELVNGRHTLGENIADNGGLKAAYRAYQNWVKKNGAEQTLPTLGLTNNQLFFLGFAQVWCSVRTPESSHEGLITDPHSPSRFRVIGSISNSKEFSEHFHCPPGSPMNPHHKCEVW
Assay: in vitro assay for endothelin converting enzyme inhibition (radioimmunoassay of ET-1 formed from big ET-1)
Format: biochemical, porcine
Text: The ECE inhibition can be determined as described in Biochem. Mol. Biol. Int. […] In vitro testing is most appropriate for the free phosphonic acids of the invention.

- IC50 (ECE partially purified from porcine primary aortic endothelial cells, pH 7.4 buffer): ~370 nM
- relative activity as ECE inhibitor (diastereomer A versus diastereomer B) (comparison of the two diastereomers of Example 1): more active
Compound: O=P(O)(O)C(CCc1cccc2ccccc12)N[C@@H](Cc1ccc(-c2ccccc2)cc1)c1nnn[nH]1 (single isomer, unassigned) [1 (a)]
